{
  "source": "patent US20090143752A1",
  "about": "“Passive intraocular drug delivery devices and associated methods” (priority 2007, published 2009)",
  "key": {"[1]": {"test": "DSP in eye tissues after passive delivery from six chambered annular lens-shaped housing, immediate release (Example 2)", "assay_type": "in vivo, New Zealand White Rabbit", "conditions": "rabbit eye, 0.5 M DSP pH 7, 6.47 mgs in each of 3 chambers, housing on eye 20 minutes, 4 hours after application", "procedure": "A six chambered annular lens-shaped housing is used to passively administer dexamethasone sodium phosphate (DSP) into the eye for immediate release. Chambers 1, 3, and 5 each contain a 2 mm Avalon Sponge hydrated with 25 μl of hydrogel and are further loaded with 6.47 mgs of 0.5 M DSP at pH 7 in each chamber. […] The process is repeated for a total of 4 trials."}, "[2]": {"conditions": "New Zealand White, rabbit, in vivo, 4 h", "procedure": "A 100 microliter/30 G needle Hamilton syringe is used to administer a sub conjunctiva injection (n=2) of 20 microliters of 0.1M DSP at pH 7 into an eye of a New Zealand White Rabbit. The initial dose of DSP is 1.04 mg. […] The process is repeated for a total of 2 trials. About 23 micrograms of the approximate 1.04 mg subconjunctival injection of DSP are recovered from the whole eye after 4 hours. This illustrates the clearance effects of the transscleral pathway; in this case about 97.8 percent of the drug cleared the eye within four hours."}},
  "data": [
    {"smiles": "C[C@@H]1C[C@H]2[C@@H]3CCC4=CC(=O)C=C[C@]4(C)[C@@]3(F)[C@@H](O)C[C@]2(C)[C@@]1(O)C(=O)COP(=O)(O)O", "note": "[DSP, dexamethasone sodium phosphate]", "values": [
      {"measurement": "DSP Total Drug, Conjunctiva", "setting": "[1]", "result": "6.2 ± 0.8", "unit": "micrograms"},
      {"measurement": "DSP Total Drug, Retina/Choroid", "setting": "[1]", "result": "1.1 ± 0.5", "unit": "micrograms"},
      {"measurement": "DSP Total Drug, Sclera", "setting": "[1]", "result": "4.3 ± 1.0", "unit": "micrograms"},
      {"measurement": "DSP Total Drug, Whole Eye", "setting": "[1]", "result": "14.9 ± 1.1", "unit": "micrograms"},
      {"measurement": "percent of the drug cleared the eye", "setting": "[2]", "result": "about 97.8%"}
    ]}
  ]
}
